Test results from patent US6737383B1, “Herbicidal oxadiazolidines” (priority 1999, dated 2004).

Key:
duck salad = assay: Test B flood test duck salad; format: in vivo, Heteranthera limosa
Procedure, shortened: (§1)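 Each value is a visual injury score relative to controls, with 10 meaning complete control and 0 no effect. Evaluation took place twelve to sixteen days after the 2-leaf-stage plants were treated and kept in the greenhouse.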

rice = assay: Test B flood test rice; format: in vivo, Oryza sativa
Experimental: (§2) At the same time, these crop and weed species were also treated with postemergence applications of test chemicals formulated in the same manner. Plants ranged in height from 2 to 18 cm (1- to 4-leaf stage) for postemergence treatments. Plant species in the flood test consisted of rice (Oryza sativa), smallflower flatsedge (Cyperus difformis), duck salad (Heteranthera limosa) and bamyardgrass (Echinochloa crus-galli) grown to the 2-leaf stage for testing. Treated plants and controls were maintained in a greenhouse for twelve to sixteen days, after which all species were compared to controls and visually evaluated. Plant response ratings, summarized in Table B, are based on a scale of 0 to 10 where 0 is no effect and 10 is complete control. A dash (−) response means no test result.

smallflower flatsedge = assay: Test B flood test smallflower flatsedge; format: in vivo, Cyperus difformis
Procedure, shortened: as §1

corn = assay: Test B pre/postemergence corn; format: in vivo, Zea mays
Procedure, shortened: (§3)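 Herbicidal effect was estimated by eye on a ten-point control scale after plants spent twelve to sixteen days in a greenhouse following soil or foliar treatment. Foliar sprays targeted plants at one to four leaves; all doses were formulated in a non-phytotoxic solvent with surfactant.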

bamyardgrass = assay: Test B flood test barnyardgrass; format: in vivo, Echinochloa crus-galli
Experimental: as §2

cocklebur = assay: Test B pre/postemergence cocklebur; format: in vivo, Xanthium strumarium; settings: Preemergence
Procedure, shortened: as §3

morningglory = assay: Test B pre/postemergence morningglory; format: in vivo, Ipomoea hederacea; settings: Preemergence, scale of 0 to 10 where 0 is no effect and 10 is complete control
Procedure, shortened: as §3

bedstraw = assay: Test B pre/postemergence bedstraw; format: in vivo, Galium aparine; settings: Preemergence
Procedure, shortened: as §3

crabgrass = assay: Test B pre/postemergence crabgrass; format: in vivo, Digitaria sanguinalis; settings: Preemergence
Procedure, shortened: as §3

surinam grass = assay: Test B pre/postemergence surinam grass; format: in vivo, Brachiaria decumbens; settings: Preemergence
Procedure, shortened: as §3

pigweed = assay: Test B pre/postemergence pigweed; format: in vivo, Amaranthus retroflexus; settings: Preemergence, scale of 0 to 10 where 0 is no effect and 10 is complete control
Procedure, shortened: as §3

velvetleaf = assay: Test B pre/postemergence velvetleaf; format: in vivo, Abutilon theophrasti; settings: Preemergence, scale of 0 to 10 where 0 is no effect and 10 is complete control
Procedure, shortened: as §3

wild oat = assay: Test B pre/postemergence wild oat; format: in vivo, Avena fatua; settings: Preemergence, scale of 0 to 10 where 0 is no effect and 10 is complete control
Procedure, shortened: as §3

sugar beet = assay: Test B pre/postemergence sugar beet; format: in vivo, Beta vulgaris; settings: Preemergence, scale of 0 to 10 where 0 is no effect and 10 is complete control
Procedure, shortened: as §3

soybean = assay: Test B pre/postemergence soybean; format: in vivo, Glycine max; settings: Preemergence, scale of 0 to 10 where 0 is no effect and 10 is complete control
Procedure, shortened: as §3

giant foxtail = assay: Test B pre/postemergence giant foxtail; format: in vivo, Setaria faberii; settings: Preemergence, scale of 0 to 10 where 0 is no effect and 10 is complete control
Procedure, shortened: as §3

blackgrass = assay: Test B pre/postemergence blackgrass; format: in vivo, Alopecurus myosuroides; settings: Preemergence
Procedure, shortened: as §3

purple nutsedge = assay: Test B pre/postemergence purple nutsedge; format: in vivo, Cyperus rotundus; settings: Preemergence, Rate 62 g/ha; scale of 0 to 10 where 0 is no effect and 10 is complete control
Procedure, shortened: as §3

rape = assay: Test B pre/postemergence rape; format: in vivo, Brassica napus; settings: Preemergence, scale of 0 to 10 where 0 is no effect and 10 is complete control
Procedure, shortened: as §3

wheat = assay: Test B pre/postemergence wheat; format: in vivo, Triticum aestivum; settings: Preemergence, scale of 0 to 10 where 0 is no effect and 10 is complete control
Procedure, shortened: as §3

[1] = Postemergence, Rate 62 g/ha, scale 0 to 10, 0 is no effect, 10 is complete control
[2] = Rate 125 g/ha, Postemergence section (flood test species), scale 0 to 10, 0 no effect, 10 complete control
[3] = Rate 500 g/ha, listed under Postemergence (flood test species), scale 0 to 10, 0 no effect, 10 complete control
[4] = flood test, listed under Postemergence, Rate 250 g/ha, scale 0 to 10, 0 no effect, 10 complete control
[5] = Rate 62 g/ha, scale of 0 to 10 where 0 is no effect and 10 is complete control
[6] = Rate 125 g/ha, scale of 0 to 10 where 0 is no effect and 10 is complete control
[7] = Rate 250 g/ha, scale 0 to 10 (0 no effect, 10 complete control)
[8] = Rate 500 g/ha, scale of 0 to 10 where 0 is no effect and 10 is complete control
[9] = Rate 62 g/ha, flood test species, Pre-emergence, visual evaluation after twelve to sixteen days
[10] = Rate 125 g/ha, under heading Pre-emergence, flood test species, visual evaluation after twelve to sixteen days
[11] = Rate 250 g/ha, Pre-emergence (flood test species), scale 0 to 10, 0 is no effect, 10 is complete control
[12] = Rate 500 g/ha, Pre-emergence section of Table B, 0 to 10 scale (0 no effect, 10 complete control)

Compound: Cc1ccccc1-n1c(=O)on(C(=O)N(c2ccc(F)cc2F)C2CC2)c1=O [Compound 50]
- Ducksalad plant response rating (duck salad; [1]): 0
- Ducksalad plant response rating (duck salad; [2]): 0
- Ducksalad plant response rating (duck salad; [3]): 0
- Ducksalad plant response rating (duck salad; [4]): 0
- Rice plant response rating (rice; [1]): 0
- Rice plant response rating (rice; [2]): 0
- Rice plant response rating (rice; [3]): 0
- Rice plant response rating (rice; [4]): 0
- S. Flatsedge plant response rating (smallflower flatsedge; [1]): 0
- S. Flatsedge plant response rating (smallflower flatsedge; [2]): 0
- S. Flatsedge plant response rating (smallflower flatsedge; [3]): 0
- S. Flatsedge plant response rating (smallflower flatsedge; [4]): 0
- Corn plant response rating (corn; Rate 125 g/ha, Postemergence, scale 0 to 10, 0 no effect, 10 complete control): 0
- Barnyardgrass plant response rating (bamyardgrass; [1]): 0
- Barnyardgrass plant response rating (bamyardgrass; [2]): 0
- Barnyardgrass plant response rating (bamyardgrass; [3]): 0
- Barnyardgrass plant response rating (bamyardgrass; [4]): 0

Compound: CC(C)N(C(=O)n1oc(=O)n(C(C)C2CCC2)c1=O)c1ccc(Cl)cc1 (stereo not shown) [Compound 701]
- Cocklebur plant response rating (cocklebur; [5]): 0
- Plant response rating, Cocklebur (cocklebur; [6]): 0
- Plant response rating, Cocklebur (cocklebur; [7]): 0
- Plant response rating, Cocklebur (cocklebur; [8]): 0
- Plant response rating, Ducksalad (0 to 10 scale, 0 is no effect, 10 is complete control) (duck salad; [9]): 0
- Ducksalad plant response rating (0 to 10 scale, 0 is no effect, 10 is complete control) (duck salad; [10]): 0
- Ducksalad plant response rating (duck salad; [11]): 0
- Ducksalad plant response rating (duck salad; [12]): 3
- Morningglory plant response rating (morningglory; Rate 62 g/ha): 0
- Plant response rating, Morningglory (morningglory; Rate 125 g/ha): 0
- Bedstraw plant response rating (bedstraw; [5]): 0
- Plant response rating, Bedstraw (bedstraw; [6]): 0
- Plant response rating, Bedstraw (bedstraw; [7]): 0
- Plant response rating, Bedstraw (bedstraw; [8]): 0
- Plant response rating, S. Flatsedge (0 to 10 scale, 0 is no effect, 10 is complete control) (smallflower flatsedge; [9]): 0
- S. Flatsedge plant response rating (0 to 10 scale, 0 is no effect, 10 is complete control) (smallflower flatsedge; [10]): 0
- S. Flatsedge plant response rating (smallflower flatsedge; [11]): 0
- S. Flatsedge plant response rating (smallflower flatsedge; [12]): 0
- Crabgrass plant response rating (crabgrass; [5]): 0
- Plant response rating, Crabgrass (crabgrass; [6]): 10
- Plant response rating, Crabgrass (crabgrass; [7]): 10
- B. signalgrass plant response rating (surinam grass; [5]): 0
- Plant response rating, B. signalgrass (surinam grass; [6]): 0
- Plant response rating, B. signalgrass (surinam grass; [7]): 0
- Plant response rating, B. signalgrass (surinam grass; [8]): 0
- Redroot pigweed plant response rating (pigweed; Rate 62 g/ha): 0
- Plant response rating, Redroot pigweed (pigweed; Rate 125 g/ha): 0
- Velvetleaf plant response rating (velvetleaf; Rate 62 g/ha): 0
- Plant response rating, Velvetleaf (velvetleaf; Rate 125 g/ha): 0
- Wild oats plant response rating (wild oat; Rate 62 g/ha): 0
- Plant response rating, Wild oats (wild oat; Rate 125 g/ha): 0
- Sugarbeets plant response rating (sugar beet; Rate 62 g/ha): 0
- Plant response rating, Sugarbeets (sugar beet; Rate 125 g/ha): 0
- Soybean plant response rating (soybean; Rate 62 g/ha): 0
- Plant response rating, Soybean (soybean; Rate 125 g/ha): 0
- Giant foxtail plant response rating (giant foxtail; Rate 62 g/ha): 6
- Plant response rating, Giant foxtail (giant foxtail; Rate 125 g/ha): 10
- Corn plant response rating (corn; Preemergence, Rate 62 g/ha, scale of 0 to 10 where 0 is no effect and 10 is complete control): 0
- Plant response rating, Corn (corn; Preemergence, Rate 125 g/ha, scale of 0 to 10 where 0 is no effect and 10 is complete control): 0
- Plant response rating, Corn (corn; Preemergence, Rate 250 g/ha, scale 0 to 10 (0 no effect, 10 complete control)): 0
- Blackgrass plant response rating (blackgrass; [5]): 0
- Plant response rating, Blackgrass (blackgrass; [6]): 2
- Plant response rating, Blackgrass (blackgrass; [7]): 2
- Plant response rating, Blackgrass (blackgrass; [8]): 6
- Nutsedge plant response rating (purple nutsedge): 0
- Rape plant response rating (rape; Rate 62 g/ha): 0
- Plant response rating, Rape (rape; Rate 125 g/ha): 0
- Wheat plant response rating (wheat; Rate 62 g/ha): 0
- Plant response rating, Wheat (wheat; Rate 125 g/ha): 0
- Plant response rating, Barnyardgrass (0 to 10 scale, 0 is no effect, 10 is complete control) (bamyardgrass; [9]): 0
- Barnyardgrass plant response rating (0 to 10 scale, 0 is no effect, 10 is complete control) (bamyardgrass; [10]): 0
- Barnyardgrass plant response rating (bamyardgrass; [11]): 0
- Barnyardgrass plant response rating (bamyardgrass; [12]): 0
